{"source": "paper PMC12396409", "about": "“Screening and hit evaluation of a microbial metabolite library against the pathogenic Plasmodium falciparum and Toxoplasma gondii parasites” (International Journal for Parasitology: Drugs and Drug …, 2025)", "key": {"[1]": {"test_system": "T. gondii RH strain (RH-Tub-eYFP) tachyzoites", "test": "microbe, parasite or virus in culture", "format": "cell-based, Toxoplasma gondii", "conditions": "72 h; for Tg_72h_%Growth_Rep1 / Tg_72h_%Growth_Rep2: % growth; for percent parasite growth at 2 µg/mL: Toxoplasma gondii"}, "[2]": {"test_system": "P. falciparum 3D7 parasites", "test": "P. falciparum growth inhibition assay, 1-cycle (72 h treatment), SYBR DNA staining (library screen at 2 μg/mL and dose-response)", "format": "cell-based, Plasmodium falciparum", "conditions": "for Pf_72h_%Growth_Rep1 / Pf_72h_%Growth_Rep2: % growth; for activity at 2 µg/mL: Plasmodium falciparum"}, "[3]": {"test_system": "P. falciparum 3D7 parasites", "test": "P. falciparum growth inhibition assay, 2-cycle (120 h treatment), delayed-death screen and dose-response", "format": "cell-based, Plasmodium falciparum", "conditions": "for Pf_120h_%Growth_Rep1 / Pf_120h_%Growth_Rep2: % growth; for activity at 2 µg/mL: Plasmodium falciparum"}, "[4]": {"conditions": "T. gondii, parasite screen at 2 μg/mL, replicate 1"}, "[5]": {"conditions": "T. gondii, parasite screen at 2 μg/mL, replicate 2"}, "[6]": {"conditions": "P. falciparum 3D7, 72 h, parasite screen at 2 μg/mL, replicate 1"}, "[7]": {"conditions": "P. falciparum 3D7, 72 h, parasite screen at 2 μg/mL, replicate 2"}, "[8]": {"conditions": "P. falciparum 3D7, 120 h, parasite screen at 2 μg/mL, replicate 1"}, "[9]": {"conditions": "P. falciparum 3D7, 120 h, parasite screen at 2 μg/mL, replicate 2"}, "[10]": {"conditions": "library screen at 2 μg/mL, replicate 1"}, "[11]": {"conditions": "library screen at 2 μg/mL, replicate 2"}, "[12]": {"conditions": "library screen at 2 μg/mL, 72 h, replicate 1"}, "[13]": {"conditions": "library screen at 2 μg/mL, 72 h, replicate 2"}, "[14]": {"conditions": "library screen at 2 μg/mL, 120 h, replicate 1"}, "[15]": {"conditions": "library screen at 2 μg/mL, 120 h, replicate 2"}, "[16]": {"conditions": "T. gondii, screen at 2 μg/mL, replicate 1, read-out: Tg_72h_%Growth_Rep1"}, "[17]": {"conditions": "T. gondii, screen at 2 μg/mL, replicate 2, read-out: Tg_72h_%Growth_Rep2"}, "[18]": {"conditions": "3D7, P. falciparum, 72 h, screen at 2 μg/mL, replicate 1, read-out: Pf_72h_%Growth_Rep1"}, "[19]": {"conditions": "3D7, P. falciparum, 72 h, screen at 2 μg/mL, replicate 2, read-out: Pf_72h_%Growth_Rep2"}, "[20]": {"conditions": "3D7, P. falciparum, 120 h, screen at 2 μg/mL, replicate 1, read-out: Pf_120h_%Growth_Rep1"}, "[21]": {"conditions": "3D7, P. falciparum, 120 h, screen at 2 μg/mL, replicate 2, read-out: Pf_120h_%Growth_Rep2"}}, "note": "Where a name gives a salt, the structure may show the parent alone. Read-outs that look alike come from different tables or passages of the source."}
{"smiles": "C=C[C@]1(C)C[C@@H](O)[C@]2(C)[C@H](C)CC[C@]3(CCC(=O)[C@H]32)[C@@H](C)[C@@H]1O", "note": "[BIA-M1333]", "values": [{"measurement": "Tg_72h_%Growth_Rep1", "setting": "[1]; [4]", "result": 107.76, "unit": "%"}, {"measurement": "Tg_72h_%Growth_Rep2", "setting": "[1]; [5]", "result": 90.41, "unit": "%"}, {"measurement": "Pf_72h_%Growth_Rep1", "setting": "[2]; [6]", "result": 79.79, "unit": "%"}, {"measurement": "Pf_72h_%Growth_Rep2", "setting": "[2]; [7]", "result": 96.77, "unit": "%"}, {"measurement": "Pf_120h_%Growth_Rep1", "setting": "[3]; [8]", "result": 84.29, "unit": "%"}, {"measurement": "Pf_120h_%Growth_Rep2", "setting": "[3]; [9]", "result": 105.61, "unit": "%"}]}
{"smiles": "Cc1c2c(c(O)c3c(O)ccc(Cl)c13)C(=O)C1(O)C(O)=C(C(N)=O)C(=O)C(N(C)C)C1C2.Cl", "note": "(stereo not drawn)", "values": [{"measurement": "Tg_72h_%Growth_Rep1", "setting": "[1]; [10]", "result": 119.39, "unit": "%"}, {"measurement": "Tg_72h_%Growth_Rep2", "setting": "[1]; [11]", "result": 96.29, "unit": "%"}, {"measurement": "Pf_72h_%Growth_Rep1", "setting": "[2]; [12]", "result": 85.99, "unit": "%"}, {"measurement": "Pf_72h_%Growth_Rep2", "setting": "[2]; [13]", "result": 99.34, "unit": "%"}, {"measurement": "Pf_120h_%Growth_Rep1", "setting": "[3]; [14]", "result": 95.25, "unit": "%"}, {"measurement": "Pf_120h_%Growth_Rep2", "setting": "[3]; [15]", "result": 115.61, "unit": "%"}]}
{"smiles": "CCC[C@H]1CC2=C(C[C@@H](CC)CC3=C1C(=O)OC3=O)C(=O)OC2=O", "note": "[Byssochlamic acid]", "values": [{"measurement": "percent parasite growth at 2 µg/mL", "setting": "[1]; [16]", "result": 92.1, "unit": "%"}, {"measurement": "percent parasite growth at 2 µg/mL", "setting": "[1]; [17]", "result": 94.4, "unit": "%"}, {"measurement": "activity at 2 µg/mL", "setting": "[2]; [18]", "result": 89.8, "unit": "%"}, {"measurement": "activity at 2 µg/mL", "setting": "[2]; [19]", "result": 83.3, "unit": "%"}, {"measurement": "activity at 2 µg/mL", "setting": "[3]; [20]", "result": 129, "unit": "%"}, {"measurement": "activity at 2 µg/mL", "setting": "[3]; [21]", "result": 88.1, "unit": "%"}]}
{"smiles": "COC(=O)[C@]1(Cc2ccc3c(c2)C[C@H](O)C(C)(C)O3)OC(=O)C(O)=C1c1ccc(O)cc1", "note": "[Butyrolactone V]", "values": [{"measurement": "percent parasite growth at 2 µg/mL", "setting": "[1]; [16]", "result": 130, "unit": "%"}, {"measurement": "percent parasite growth at 2 µg/mL", "setting": "[1]; [17]", "result": 90, "unit": "%"}, {"measurement": "activity at 2 µg/mL", "setting": "[2]; [18]", "result": 83.9, "unit": "%"}, {"measurement": "activity at 2 µg/mL", "setting": "[2]; [19]", "result": 90.6, "unit": "%"}, {"measurement": "activity at 2 µg/mL", "setting": "[3]; [20]", "result": 100, "unit": "%"}, {"measurement": "activity at 2 µg/mL", "setting": "[3]; [21]", "result": 94.5, "unit": "%"}]}
{"smiles": "CN1C(=O)[C@]23C[C@H]4C(C)(C)[C@]5(CNc6c5ccc5c6OC=CC(C)(C)O5)C[C@@]41CN2CC[C@@]3(C)O", "note": "[Derquantel]", "values": [{"measurement": "Tg_72h_%Growth_Rep1", "setting": "[1]; [10]", "result": 207.28, "unit": "%"}, {"measurement": "Tg_72h_%Growth_Rep2", "setting": "[1]; [11]", "result": 97.75, "unit": "%"}, {"measurement": "Pf_72h_%Growth_Rep1", "setting": "[2]; [12]", "result": 84.92, "unit": "%"}, {"measurement": "Pf_72h_%Growth_Rep2", "setting": "[2]; [13]", "result": 84.29, "unit": "%"}, {"measurement": "Pf_120h_%Growth_Rep1", "setting": "[3]; [14]", "result": 88.90, "unit": "%"}, {"measurement": "Pf_120h_%Growth_Rep2", "setting": "[3]; [15]", "result": 91.44, "unit": "%"}]}
{"smiles": "C=C1c2c(Cl)ccc(O)c2C(=O)C2=C(O)[C@]3(O)C(=O)C(C(N)=O)=C(O)[C@@H](N(C)C)[C@@H]3[C@@H](O)[C@H]12", "note": "[BIA-M1464]", "values": [{"measurement": "Tg_72h_%Growth_Rep1", "setting": "[1]; T. gondii RH, library screen at 2 μg/mL, replicate 1", "result": 124.80, "unit": "%"}, {"measurement": "Tg_72h_%Growth_Rep2", "setting": "[1]; T. gondii RH, library screen at 2 μg/mL, replicate 2", "result": 96.61, "unit": "%"}, {"measurement": "Pf_72h_%Growth_Rep1", "setting": "[2]; P. falciparum 3D7, 72 h, library screen at 2 μg/mL, replicate 1", "result": 76.80, "unit": "%"}, {"measurement": "Pf_72h_%Growth_Rep2", "setting": "[2]; P. falciparum 3D7, 72 h, library screen at 2 μg/mL, replicate 2", "result": 116.17, "unit": "%"}, {"measurement": "Pf_120h_%Growth_Rep1", "setting": "[3]; P. falciparum 3D7, 120 h, library screen at 2 μg/mL, replicate 1", "result": 99.01, "unit": "%"}, {"measurement": "Pf_120h_%Growth_Rep2", "setting": "[3]; P. falciparum 3D7, 120 h, library screen at 2 μg/mL, replicate 2", "result": 114.33, "unit": "%"}]}
{"smiles": "Cc1cc(O)c2c3c1C(=O)C=C1C(C)(C)C(=O)c4c(O)cc(O)c(c4C13O)C2=O", "note": "(stereo not drawn) [Resistoflavine]", "values": [{"measurement": "Tg_72h_%Growth_Rep1", "setting": "[1]; T. gondii, parasite screen 2 μg/mL, replicate 1", "result": 250.44, "unit": "%"}, {"measurement": "Tg_72h_%Growth_Rep2", "setting": "[1]; T. gondii, parasite screen 2 μg/mL, replicate 2", "result": 135.44, "unit": "%"}, {"measurement": "Pf_72h_%Growth_Rep1", "setting": "[2]; P. falciparum, 72 h, parasite screen 2 μg/mL, replicate 1", "result": 97.04, "unit": "%"}, {"measurement": "Pf_72h_%Growth_Rep2", "setting": "[2]; P. falciparum, 72 h, parasite screen 2 μg/mL, replicate 2", "result": 109.63, "unit": "%"}, {"measurement": "Pf_120h_%Growth_Rep1", "setting": "[3]; P. falciparum, 120 h, parasite screen 2 μg/mL, replicate 1", "result": 116.77, "unit": "%"}, {"measurement": "Pf_120h_%Growth_Rep2", "setting": "[3]; P. falciparum, 120 h, parasite screen 2 μg/mL, replicate 2", "result": 93.07, "unit": "%"}]}
{"smiles": "Cc1ncc(-c2c[nH]c3ccccc23)o1", "note": "[BIA-P1070]", "values": [{"measurement": "Tg_72h_%Growth_Rep1", "setting": "[1]; [4]", "result": 139.44, "unit": "%"}, {"measurement": "Tg_72h_%Growth_Rep2", "setting": "[1]; [5]", "result": 88.28, "unit": "%"}, {"measurement": "Pf_72h_%Growth_Rep1", "setting": "[2]; [6]", "result": 82.71, "unit": "%"}, {"measurement": "Pf_72h_%Growth_Rep2", "setting": "[2]; [7]", "result": 88.10, "unit": "%"}, {"measurement": "Pf_120h_%Growth_Rep1", "setting": "[3]; [8]", "result": 92.74, "unit": "%"}, {"measurement": "Pf_120h_%Growth_Rep2", "setting": "[3]; [9]", "result": 139.06, "unit": "%"}]}
{"smiles": "CN[C@H](CC(C)C)C(=O)N[C@H]1C(=O)N[C@@H](CC(N)=O)C(=O)N[C@H]2C(=O)N[C@H]3C(=O)N[C@H](C(=O)N[C@H](C(=O)O)c4cc(O)cc(O)c4-c4cc3ccc4O)[C@H](O)c3ccc(c(Cl)c3)Oc3cc2cc(c3O[C@@H]2O[C@H](CO)[C@@H](O)[C@H](O)[C@H]2O[C@H]2C[C@](C)(N)[C@H](O)[C@H](C)O2)Oc2ccc(cc2Cl)[C@H]1O", "note": "[Vancomycin hydrochloride]", "values": [{"measurement": "percent parasite growth at 2 µg/mL", "setting": "[1]; read-out: Tg_72h_%Growth_Rep1", "result": 108, "unit": "%"}, {"measurement": "percent parasite growth at 2 µg/mL", "setting": "[1]; read-out: Tg_72h_%Growth_Rep2", "result": 80.9, "unit": "%"}, {"measurement": "activity at 2 µg/mL", "setting": "[2]; 3D7, 72 h, read-out: Pf_72h_%Growth_Rep1", "result": 88, "unit": "%"}, {"measurement": "activity at 2 µg/mL", "setting": "[2]; 3D7, 72 h, read-out: Pf_72h_%Growth_Rep2", "result": 120, "unit": "%"}, {"measurement": "activity at 2 µg/mL", "setting": "[3]; 3D7, 120 h, read-out: Pf_120h_%Growth_Rep1", "result": 110, "unit": "%"}, {"measurement": "activity at 2 µg/mL", "setting": "[3]; 3D7, 120 h, read-out: Pf_120h_%Growth_Rep2", "result": 98.5, "unit": "%"}]}
